Patent US4225579A, “Means and method for improving defenses against caries” (priority 1979, dated 1980)
Residues, ends and D or L forms follow the SMILES beside them.

Experiments:
Assay type in all cases: cell-based
salivary sediment = experiment: pH fall and rise with individual peptides of 2-4 amino acid units in salivary sediment-glucose mixture; details: for pH rising to / pH drop to: salivary sediment 16.7% (v/v), glucose 2.8 mM, peptide 3.3 mM; for pH rising to: measured through the fourth hour; for pH drop to: pH starts slightly above 7
Experimental: Four sets of three 10×75 mm test tubes were provided with 0.2 ml of 8.4 mM (millimolar) of aqueous glucose solution. Set I was provided with 0.2 ml of pooled supernatant saliva. […] Set IV was provided with 0.2 ml of distilled water. […] The concentration of the peptide in the combined composition was 3.3 mM. […] The pH values are as follows: Extensive testing of individual peptides of 2-4 amino acid units as could reasonably be obtained or synthesized was done. The tests were carried out under the same conditions as Sets I-IV. The salivary sediment was present in an amount of 16.7% (v/v), glucose 2.8 mM and the peptide 3.3 mM in the final composition. Duplicate runs without peptide were run parallel to the others as a double check. […] An effective pH rise factor begins to reverse the fall within the first hour. Measurement continues through the fourth hour.

oral bacteria [1] = experiment: pH of glucose solution incubated with oral bacteria suspension, Sets I-IV; details: 37° C.; for pH at 0 minutes: 0 time when bacteria added, test substance 3.3 mM in combined composition
Experimental: Experiments were performed in vitro using supernatant saliva. The saliva was obtained from random donors whose salivary secretions were paraffin block stimulated. The saliva donations were pooled before and after sediment removal.
Four sets of three 10×75 mm test tubes were provided with 0.2 ml of 8.4 mM (millimolar) of aqueous glucose solution. Set I was provided with 0.2 ml of pooled supernatant saliva. Set II was provided with 0.2 ml of 9.9 mM of the peptide glycine-glycine-arginine. Set III was provided with 0.2 ml of 9.9 mM arginine. Set IV was provided with 0.2 ml of distilled water. Sequentially 0.2 ml of a 50:50 aqueous suspension of oral bacteria was added to each test tube. The concentration of the peptide in the combined composition was 3.3 mM. The prepared test tubes were kept at 37° C. in a water bath. pH readings were taken at 0 time when the bacteria was added and at 15, 30, 45, 60, 90, 120, 180 and 240 minutes.

oral bacteria [2] = experiment: as above; details: 37° C., 3.3 mM

SMILES	effectiveness as pH rise factor (salivary sediment)	pH rising to (salivary sediment)	pH drop to (salivary sediment)	pH at 0 minutes (oral bacteria [1])	pH at 15 minutes (oral bacteria [1]; 3.3 mM)	pH at 39 minutes (oral bacteria [1]; 39 minutes, 3.3 mM)	pH at 45 minutes (oral bacteria [1]; 3.3 mM)	pH at 60 minutes (oral bacteria [1]; 3.3 mM)	pH at 90 minutes (oral bacteria [1]; 3.3 mM)	pH at 120 minutes (oral bacteria [1]; 3.3 mM)	pH at 180 minutes (oral bacteria [1]; 3.3 mM)	pH at 240 minutes (oral bacteria [1]; 3.3 mM)	pH at 39 minutes (oral bacteria [2])
N=C(N)NCCC[C@H](NC(=O)[C@H](CCCCN)NC(=O)CNC(=O)CN)C(=O)O [Gly-Gly-Lys-Arg, H-glycine-glycine-lysine-arginine-OH] (H-GGKR-OH)	proven effective	8.4	6.4	–	–	–	–	–	–	–	–	–	–
N=C(N)NCCC[C@H](N)C(=O)O.NCC(=O)O.NCC(=O)O [Gly-Gly-Arg, glycine-glycine-arginine]	–	7.5	5.5	7.4	6.8	6.6	6.4	6.6	6.6	6.7	7.2	7.6	–
N=C(N)NCCC[C@H](N)C(=O)O [Set III, arginine, reference compound]	–	–	–	7.3	5.8	–	5.2	4.9	5.0	5.0	5.3	5.8	5.4
